Assay results: US20240287463A1, “INDUCIBLE TISSUE CONSTRUCTS AND USES THEREOF” (Massachusetts Institute of Technology, priority 2020, published 2024)

Assays:
[1] = test system: iCasp9-GFP J2s; experiment: cell viability / removal from monolayer culture (CellTiter-Glo); assay type: cell-based; conditions: after CID exposure (500 nM, 50 nM, 5 nM in FIG. 1G)
Text: Inducible caspase-9 (iCasp9), which is activated by treatment with a small molecule chemical inducer of dimerization (CID; also known as rapalog, an analog of rapamycin) and leads to subsequent cell death through the intrinsic apoptosis pathway was utilized (FIG. 1A). The safety and efficacy of the iCasp9 transgene and CID have previously been shown in vitro and in vivo in animals and humans (A. Di Stasi, et al. (2011) dx.doi.org/10.1056/NEJMoa1106152; T. Gargett and M. P. Brown (2014) Front. Pharmacol. 5; K. C. Straathof, et al. (2005) Blood 105, 4247, each of which is herein incorporated by this reference). To generate inducible cells, 3T3-J2 fibroblasts (‘J2’) were transduced with lentivirus with a bidirectional expression cassette encoding iCasp9 and GFP genes (#15567 pMSCV-F-del Casp9.IRES.GFP; cloned to a lentivirus plasmid backbone with an SFFV promoter). FACS was used to enrich the infected population for the 15% highest-expression GFP+ cells. […]
After iCasp9-GFP J2 fibroblasts were exposed to CID, iCasp9 dimers were detected by staining with a caspase-9 antibody (FIG. 1C). […] To confirm that CID-triggered caspase-9 activation led to apoptosis, unfixed cells were stained with Annexin V, which binds to an early indicator of apoptosis, and SYTOX, a general marker of cell death, and analyzed by flow cytometry.

[2] = test system: iCasp9-HDFs; experiment: live imaging of fibroblast removal in the 3D microfluidic co-culture device; assay type: cell-based, human; conditions: 10 nM CID after 7 days of co-culture
Description: More specifically, the molds for the 2-channel microfluidic devices were constructed using stereolithography (Proto Labs). Polydimethylsiloxane (PDMS) was cured at a standard mixing ratio overnight at 60° C. in the mold, and individual devices were cut and plasma-bonded to glass slides. To enhance ECM bonding to PDMS, the surface inside the tissue chamber of the devices was functionalized with 0.01% poly-L-lysine and 1% glutaraldehyde following plasma-activation and washed overnight in DI water. On the day of seeding, devices were soaked in 70% ethanol (EtOH) and dried. Acupuncture needles (300 μm diameter) (Hwato) were blocked in 0.1% (w/v) bovine serum albumin (BSA) (Sigma) in phosphate buffer saline (PBS) for 45 minutes and inserted through the two needle guides. Devices with needles were UV-sterilized for 15 minutes. Once the needles were inserted, a fibrinogen solution containing human umbilical vein endothelial cells (HUVECs) and growth-arrested human dermal fibroblasts (HDFs) were added into the tissue chamber with thrombin. To prepare the cells for seeding, HDFs or iCasp-9 HDFs were growth-arrested with 10 μg/mL mitomycin in FGM-2 for 2.5 hours and thoroughly washed 5 times in FBM. Both HUVECs and HDFs were lifted from culture plates using TrypLE Express (Gibco), centrifuged at 200 g for 4 minutes, and resuspended to a concentration of 20 million cells/mL in EGM-2. […]

With `CC[C@H](C(=O)N1CCCC[C@H]1C(=O)O[C@H](CCc1ccc(OC)c(OC)c1)c1cccc(OCC(=O)NCC(CNC(=O)COc2cccc([C@@H](CCc3ccc(OC)c(OC)c3)OC(=O)[C@@H]3CCCCN3C(=O)[C@@H](CC)c3cc(OC)c(OC)c(OC)c3)c2)CN(C)C)c1)c1cc(OC)c(OC)c(OC)c1` [CID, AP20187] the “time to efficient removal from culture” value [1] was at most 1 h, the “time by which most of the fibroblast population was removed” value [2] was at most 10 h and the “time to rapid rounding of iCasp9-HDFs” value [2] was at most 5 h.
